Earlier results as cited in US20120258171A1, “COMPOSITION COMPRISING FESOTERODINE AND FIBER” (ratiopharm GmbH, priority 2009, published 2012).

How the values were obtained:
overactive bladder = conditions: both Phase III studies, versus placebo
[1] = general statement on the active agent

CC(C)C(=O)Oc1ccc(CO)cc1[C@H](CCN(C(C)C)C(C)C)c1ccccc1 [Fesoterodine, 2-[(1R)-3-(di-isopropylamine)-1-phenylpropyl]-4-(hydroxymethyl)phenyl-isobutyrate]
improvement of clinically relevant end points (urge incontinence events/24 h, frequency of micturition, mean micturition volume) (overactive bladder): statistically significant improvements over a placebo
stability against hydrolysis [1]: not particularly stable against hydrolysis
